Assay results reported in patent US10344035B2, “Salt of quinolone compound, polymorphs thereof, preparation method therefor, composition, and applications” (SHANGHAI PHARMACEUTICALS HOLDING CO., LTD., priority 2015, dated 2019).
Structures can show the parent of a compound that is named as a salt.

Experiment: Pharmacokinetic study in rats
Details: for concentration at 60 min / concentration at 90 min / concentration at 120 min / concentration at 240 min / concentration at 360 min / concentration at 480 min / concentration at 720 min / concentration at 1440 min / concentration at 5 min / concentration at 15 min / concentration at 30 min: oral, 20 μmol/kg, intragastric 20 μmol/kg
Procedure: All stock solutions of the test compound were sonicated and heated to become clarified and formulated to a 25 mM solution with DMSO.
All samples were dosed at 20 μmol/kg.
The blood sample was centrifuged at 8000 rpm for 5 min, the plasma was collected in a centrifuge tube and stored at −20° C. for use.
Treatment of the plasma sample: the proteins in 50 μL plasma sample were precipitated with 200 μL acetonitrile containing internal standard (Propranolol (PRO), 2.5 ng/mL). Vortexed for 10 min, centrifuged at 6000 g for 10 min, the supernatant was taken and 5-fold diluted with the mobile phase, and the supernatant was injected into a 96-well plate for analysis.
flow rate: 0.3 mL/min; injection volume: 2 μL; column temperature 45° C. The gradient elution procedure was: […]
The ion source was an electrospray ionization source (Turbo Ionspray, ESI); the electrospray voltage was 5500V; the temperature was 500° C.; pressure of ion source gas 1 (N2) was 50 psi; pressure of ion source gas 2 (N2) was 50 psi; pressure of curtain gas (N2) 20 psi; pressure of collision gas (CAD) was Medium; scan time was 100 ms; positive ion mode detection; scan mode was multiple reaction monitoring (MRM), ion reaction and collision energy (CE) for quantitative analysis, declustering potential (DP) are shown in the following table: […]

[1] = SD (Sprague-Dawley), rat, plasma, Plasma concentration Mean, SD rats, mean of 3 rats
[2] = SD (Sprague-Dawley), rat, plasma, Plasma concentration Rat1, SD rats, Rat1
[3] = SD (Sprague-Dawley), rat, plasma, Plasma concentration Rat 2, SD rats, Rat 2
[4] = SD (Sprague-Dawley), rat, plasma, Plasma concentration Rat 3, SD rats, Rat 3
[5] = SD rats, intragastric, 20 umol/kg
[6] = SD, rat, plasma, Plasma concentration Mean, SD rats, mean of 3 rats
[7] = SD, rat, plasma, Plasma concentration Rat1, SD rats, Rat1
[8] = SD, rat, plasma, Plasma concentration Rat 2, SD rats, Rat 2
[9] = SD, rat, plasma, Plasma concentration Rat 3, SD rats, Rat 3

SMILES: CNC(=O)c1ccc(-c2cnc3ncc(Cc4ccc5ncccc5c4)n3n2)cc1F [INCB28060 hydrochloride]
- concentration at 60 min [1]: 910 nM
- concentration at 90 min [1]: 730 nM
- concentration at 120 min [1]: 600 nM
- concentration at 240 min [1]: 430 nM
- concentration at 360 min [1]: 180 nM
- concentration at 480 min [1]: 80 nM
- concentration at 720 min [1]: 30 nM
- concentration at 1440 min [1]: 10 nM
- concentration at 5 min [2]: 15.3 nM
- concentration at 60 min [2]: 616 nM
- concentration at 90 min [2]: 394 nM
- concentration at 120 min [2]: 305 nM
- concentration at 240 min [2]: 465 nM
- concentration at 360 min [2]: 193 nM
- concentration at 480 min [2]: 88.5 nM
- concentration at 720 min [2]: 62.6 nM
- concentration at 1440 min [2]: 8.08 nM
- concentration at 5 min [3]: 42.5 nM
- concentration at 60 min [3]: 1210 nM
- concentration at 90 min [3]: 961 nM
- concentration at 120 min [3]: 725 nM
- concentration at 240 min [3]: 333 nM
- concentration at 360 min [3]: 148 nM
- concentration at 480 min [3]: 42 nM
- concentration at 720 min [3]: 13.1 nM
- concentration at 1440 min [3]: 6.99 nM
- concentration at 5 min [4]: 22.2 nM
- concentration at 60 min [4]: 897 nM
- concentration at 90 min [4]: 835 nM
- concentration at 120 min [4]: 758 nM
- concentration at 240 min [4]: 495 nM
- concentration at 360 min [4]: 211 nM
- concentration at 480 min [4]: 107 nM
- concentration at 720 min [4]: 25.7 nM
- concentration at 1440 min [4]: 15.6 nM
- Clearance [5]: 89 mL/min/kg
- Vss [5]: 24.325 L/kg
- Vz [5]: 35.978 L/kg
- thalf [5]: 283.79 min
- concentration at 5 min [6]: 30 nM
- concentration at 15 min [6]: 530 nM
- concentration at 30 min [6]: 1030 nM
- concentration at 15 min [7]: 399 nM
- concentration at 30 min [7]: 784 nM
- concentration at 15 min [8]: 732 nM
- concentration at 30 min [8]: 1320 nM
- concentration at 15 min [9]: 448 nM
- concentration at 30 min [9]: 990 nM
- AUC(0-t) (SD, rat, plasma, po, 20 umol/kg, AUC(0-t), SD rats, intragastric): 3.73 µM·h
- AUC (SD, rat, plasma, po, 20 umol/kg, AUCextra, SD rats, intragastric): 0.0715 µM·h
- AUC (SD, rat, plasma, po, 20 umol/kg, AUCtot, SD rats, intragastric): 3.8 µM·h
- Cmax (SD, rat, plasma, po, 20 umol/kg, Cmax, SD rats, intragastric): 1030 nM
- MRT (SD, rat, plasma, po, 20 umol/kg, MRT, SD rats, intragastric): 4.53 h
- Tmax (SD, rat, plasma, po, 20 umol/kg, Tmax, SD rats, intragastric): 0.5 h
- exposure in rats (comparison in words) (rats, 20 μmol/kg intragastric): not as good as that of crystal form A of SPH1772 ditartrate and crystal form A of SPH1772
